# Results reported in patent publication US20260035452A1 (THE UNIVERSITY OF BIRMINGHAM, priority 2022, published 2026).
# No end group written: not given here.
# What was measured:
# [1] = system: NIH-3T3 mouse embryonic fibroblast cells; test: IL-6 secretion by NIH-3T3 fibroblasts (Elisa); assay type: cell-based; settings: NIH-3T3 cells, 50 ng/ml, vs control / IL-17 group
# Method: FIG. 2: NIH-3T3 mouse embryonic fibroblast cells were treated with IL-17 vehicle (Ctrl), IL-17 (50 ng/ml) alone (IL-17) or peptide (FM-0410) (50 ng/ml) and supernatants were assayed by Elisa for IL-6. Data were expressed as pg/ml and presented as means±S.D. of three separate independent experiments. Statistical analysis was conducted by one-way ANOVA followed by Bonferroni's for multiple comparisons. ^##P≤0.01, ^###P≤0.005 vs Ctrl group; *P≤0.05 vs IL-17 group. In order to assess the biological activity of synthesized peptide, we carried out in vitro studies using NIH-3T3 mouse embryonic fibroblast cells. […] With this in vitro system we measured IL-17 activity by its ability to induce IL-6 secretion by NIH-3T3 mouse embryonic fibroblast cells. Methods: The levels of IL-6 in the cellular and air pouch inflammatory supernatants at 24 h were measured using commercially available enzyme-linked immunosorbent assay kit (ELISA kit, R&D System, Milan, Italy) according to the manufacturer instructions. […] The addition of 100 μl of the substrate and stop solution represented the last steps before the reading of absorbance (measured at 450 nm) on a microplate reader. Antigen levels in the samples were determined using a standard curve and expressed as pg/ml. […]
# dorsal air pouch of mice = test: In vivo air pouch model; settings: 1 μg/mice into air pouch, 24 h
# Method: FIG. 3: Mice were treated with IL-17 vehicle (Ctrl), IL-17 (1 μg/mice) alone (IL-17) or peptide (FM-0410) (1 μg/mice) and thereafter total cell number from pouches inflammatory exudates was evaluated at 24 h. Data were expressed as millions of cells for pouch and presented as means±S.D. of n=7 mice per group. Statistical analysis was conducted by one-way ANOVA followed by Bonferroni's for multiple comparisons. ^##P≤0.01, ^###P≤0.005 vs Ctrl group; *P≤0.05 vs IL-17 group.
# FIG. 4: Inflammatory supernatants obtained from the pouch cavities were assayed using a Proteome Profiler Cytokine Array for Ctrl, IL-17 and FM-0410 experimental group. Densitometric analysis is presented as heatmap. Data (expressed as INT/mm2) are presented as means±S.D. of positive spots of three independent experiments run each with n=7 mice per group.
# FIG. 5: Mice were treated with IL-17 vehicle (Ctrl), IL-17 (1 μg/mice), or peptide (FM-0410) (1 μg/mice) and inflammatory fluids were assayed by Elisa for IL-6. Data were expressed as pg/ml and presented as means±S.D. of n=7 mice per group. Statistical analysis was conducted by one-way ANOVA followed by Bonferroni's for multiple comparisons. ^##P≤0.01 vs CTRL group. […]
# Specifically, dorsal air pouches were prepared by injection of 2.5 ml of air on day 0 and day 3 as previously described (Maione et al., 2009). […] Inflammatory exudates were collected and measured to evaluate the level of inflammatory cyto-chemokines. Cell number was determined by TC20 automated cell counter (Bio-Rad, Milan, Italy) using Bio-Rad's TC20 automated cell counter uses disposable slides, TC20 trypan blue dye (0.4% trypan blue dye w/v in 0.81% sodium chloride and 0.06% potassium phosphate dibasic solution) and a CCD camera to count cells based on the analyses of capture images (Maione et al., 2018).
# Methods: The levels of IL-6 in the cellular and air pouch inflammatory supernatants at 24 h were measured using commercially available enzyme-linked immunosorbent assay kit (ELISA kit, R&D System, Milan, Italy) according to the manufacturer instructions. […]
substance,measurement,setting,value
Ac-LEKILVSVGATAVTPIVHHVAC [FM-0410],IL-6 release,[1],"significant, and more abundant, release of IL-6 compared to IL-17-treated group"
same,cyto-chemokines profile of pouch fluid (Proteome Profiler Cytokine Array),dorsal air pouch of mice,selective upregulation in a range of mediators
same,level of IL-6 in pouch fluids,dorsal air pouch of mice,increased level of IL-6 compared to control group
same,number of inflammatory leukocytes (total cell number from pouch exudates),dorsal air pouch of mice,marked increase in inflammatory infiltrates compared to control but also to IL-17-treated mice
